Tests used:
NCl-H322M = assay: NCI60 panel growth inhibition; format: cell-based; details: Homo sapiens; NCl-H322M cell line
Procedure: (§1) The human tumor cell lines of the cancer screening panel may be grown in RPMI 1640 medium containing 5% fetal bovine serum and 2 mM L-glutamine. Cells may be inoculated into 96 well microtiter plates in 100 μL at plating densities ranging from 5,000 to 40,000 cells/well depending on the doubling time of individual cell lines. After cell inoculation, the microtiter plates may be incubated at 37° C., 5% CO2, 95% air and 100% relative humidity for 24 hours prior to addition of experimental compounds. After 24 hours, two plates of each cell line may be fixed in situ with TCA, to represent a measurement of the cell population for each cell line at the time of compound addition (Tz). Experimental compounds may be solubilized in dimethyl sulfoxide at 400-fold the desired final maximum test concentration and stored frozen prior to use. At the time of compound (e.g., dovitinib or a pharmaceutically acceptable salt thereof) addition, an aliquot of frozen concentrate may be thawed and diluted to twice the desired final maximum test concentration with complete medium containing 50 μg/ml Gentamicin. Additional four, 10-fold or ½ log serial dilutions are made to provide a total of five concentrations plus control. […] Following compound (e.g., dovitinib or a pharmaceutically acceptable salt thereof) addition, the plates may be incubated for an additional 48 h at 37° C., 5% CO2, 95% air, and 100% relative humidity. For adherent cells, the assay may be terminated by the addition of cold TCA. Cells may be fixed in situ by the gentle addition of 50 μl of cold 50% (w/v) TCA (final concentration, 10% TCA) and incubated for 60 minutes at 4° C. The supernatant may be discarded, and the plates may be washed five times with tap water and air-dried. Sulforhodamine B (SRB) solution (100 μl) at 0.4% (w/v) in 1% acetic acid may be added to each well, and plates are incubated for 10 minutes at room temperature. After staining, unbound dye may be removed by washing five times with 1% acetic acid and the plates may be air-dried. […] Values are calculated for each of these three parameters if the level of activity is reached; however, if the effect is not reached or is exceeded, the value for that parameter is expressed as greater or less than the maximum or minimum concentration tested.

SK-MEL-28 = assay: NCI60 panel growth inhibition; format: cell-based; details: Homo sapiens; SK-MEL-28 cell line
Procedure: as §1

HCT-15 = assay: NCI60 panel growth inhibition; format: cell-based; details: Homo sapiens; HCT-15 cell line
Procedure: as §1

MOLT-4 = assay: NCI60 panel growth inhibition; format: cell-based; details: Homo sapiens; MOLT-4 cell line
Procedure: as §1

SNB-19 = assay: NCI60 panel growth inhibition; format: cell-based; details: Homo sapiens; SNB-19 cell line
Procedure: as §1

UACC-62 = assay: NCI60 panel growth inhibition; format: cell-based; details: Homo sapiens; UACC-62 cell line
Procedure: as §1

SF-295 = assay: NCI60 panel growth inhibition; format: cell-based; details: Homo sapiens; SF-295 cell line
Procedure: as §1

NCl-H522 = assay: NCI60 panel growth inhibition; format: cell-based; details: Homo sapiens; NCl-H522 cell line
Procedure: as §1

CAKI-1 = assay: NCI60 panel growth inhibition; format: cell-based; details: Homo sapiens; CAKI-1 cell line
Procedure: as §1

NCl-H460 = assay: NCI60 panel growth inhibition; format: cell-based; details: Homo sapiens; NCl-H460 cell line
Procedure: as §1

MDA-MB-231/ATCC = assay: NCI60 panel growth inhibition; format: cell-based; details: Homo sapiens; MDA-MB-231/ATCC cell line
Procedure: as §1

NCl-H226 = assay: NCI60 panel growth inhibition; format: cell-based; details: Homo sapiens; NCl-H226 cell line
Procedure: as §1

SW-620 = assay: NCI60 panel growth inhibition; format: cell-based; details: Homo sapiens; SW-620 cell line
Procedure: as §1

SR = assay: NCI60 panel growth inhibition; format: cell-based; details: Homo sapiens; SR cell line
Procedure: as §1

BT-549 = assay: NCI60 panel growth inhibition; format: cell-based; details: Homo sapiens; BT-549 cell line
Procedure: as §1

NCl/ADR-RES = assay: NCI60 panel growth inhibition; format: cell-based; details: Homo sapiens; NCl/ADR-RES cell line
Procedure: as §1

UACC-257 = assay: NCI60 panel growth inhibition; format: cell-based; details: Homo sapiens; UACC-257 cell line
Procedure: as §1

OVCAR-4 = assay: NCI60 panel growth inhibition; format: cell-based; details: Homo sapiens; OVCAR-4 cell line
Procedure: as §1

HOP-92 = assay: NCI60 panel growth inhibition; format: cell-based; details: Homo sapiens; HOP-92 cell line
Procedure: as §1

U251 = assay: NCI60 panel growth inhibition; format: cell-based; details: Homo sapiens, U-251; U251 cell line
Procedure: as §1

SK-MEL-2 = assay: NCI60 panel growth inhibition; format: cell-based; details: Homo sapiens; SK-MEL-2 cell line
Procedure: as §1

K-562 = assay: NCI60 panel growth inhibition; format: cell-based; details: Homo sapiens, K562; K-562 cell line
Procedure: as §1

HCT-116 = assay: NCI60 panel growth inhibition; format: cell-based; details: Homo sapiens; HCT-116 cell line
Procedure: as §1

OVCAR-8 = assay: NCI60 panel growth inhibition; format: cell-based; details: Homo sapiens; OVCAR-8 cell line
Procedure: as §1

OVCAR-5 = assay: NCI60 panel growth inhibition; format: cell-based; details: Homo sapiens; OVCAR-5 cell line
Procedure: as §1

COLO 205 = assay: NCI60 panel growth inhibition; format: cell-based; details: Homo sapiens; COLO 205 cell line
Procedure: as §1

IGROV1 = assay: NCI60 panel growth inhibition; format: cell-based; details: Homo sapiens, IGROV-1; IGROV1 cell line
Procedure: as §1

M14 = assay: NCI60 panel growth inhibition; format: cell-based; details: Homo sapiens; M14 cell line
Procedure: as §1

A549/ATCC = assay: NCI60 panel growth inhibition; format: cell-based; details: Homo sapiens; A549/ATCC cell line
Procedure: as §1

UO-31 = assay: NCI60 panel growth inhibition; format: cell-based; details: Homo sapiens; UO-31 cell line
Procedure: as §1

HS 578T = assay: NCI60 panel growth inhibition; format: cell-based; details: Homo sapiens; HS 578T cell line
Procedure: as §1

786-0 = assay: NCI60 panel growth inhibition; format: cell-based; details: Homo sapiens; 786-0 cell line
Procedure: as §1

LOX IMVI = assay: NCI60 panel growth inhibition; format: cell-based; details: Homo sapiens; LOX IMVI cell line
Procedure: as §1

SK-OV-3 = assay: NCI60 panel growth inhibition; format: cell-based; details: Homo sapiens; SK-OV-3 cell line
Procedure: as §1

SF-539 = assay: NCI60 panel growth inhibition; format: cell-based; details: Homo sapiens; SF-539 cell line
Procedure: as §1

HCC-2998 = assay: NCI60 panel growth inhibition; format: cell-based; details: Homo sapiens; HCC-2998 cell line
Procedure: as §1

NCl-H23 = assay: NCI60 panel growth inhibition; format: cell-based; details: Homo sapiens; NCl-H23 cell line
Procedure: as §1

SNB-75 = assay: NCI60 panel growth inhibition; format: cell-based; details: Homo sapiens; SNB-75 cell line
Procedure: as §1

RPMI-8226 = assay: NCI60 panel growth inhibition; format: cell-based; details: Homo sapiens; RPMI-8226 cell line
Procedure: as §1

MCF7 = assay: NCI60 panel growth inhibition; format: cell-based; details: Homo sapiens; MCF7 cell line
Procedure: as §1

TK-10 = assay: NCI60 panel growth inhibition; format: cell-based; details: Homo sapiens; TK-10 cell line
Procedure: as §1

EKVX = assay: NCI60 panel growth inhibition; format: cell-based; details: Homo sapiens; EKVX cell line
Procedure: as §1

OVCAR-3 = assay: NCI60 panel growth inhibition; format: cell-based; details: Homo sapiens; OVCAR-3 cell line
Procedure: as §1

DU-145 = assay: NCI60 panel growth inhibition; format: cell-based; details: Homo sapiens; DU-145 cell line
Procedure: as §1

RXF 393 = assay: NCI60 panel growth inhibition; format: cell-based; details: Homo sapiens; RXF 393 cell line
Procedure: as §1

A498 = assay: NCI60 panel growth inhibition; format: cell-based; details: Homo sapiens; A498 cell line
Procedure: as §1

HT29 = assay: NCI60 panel growth inhibition; format: cell-based; details: Homo sapiens, HT-29; HT29 cell line
Procedure: as §1

PC-3 = assay: NCI60 panel growth inhibition; format: cell-based; details: Homo sapiens; PC-3 cell line
Procedure: as §1

KM12 = assay: NCI60 panel growth inhibition; format: cell-based; details: Homo sapiens; KM12 cell line
Procedure: as §1

SN12C = assay: NCI60 panel growth inhibition; format: cell-based; details: Homo sapiens; SN12C cell line
Procedure: as §1

HOP-62 = assay: NCI60 panel growth inhibition; format: cell-based; details: Homo sapiens; HOP-62 cell line
Procedure: as §1

MALME-3M = assay: NCI60 panel growth inhibition; format: cell-based; details: Homo sapiens; MALME-3M cell line
Procedure: as §1

ACHN = assay: NCI60 panel growth inhibition; format: cell-based; details: Homo sapiens; ACHN cell line
Procedure: as §1

SF-268 = assay: NCI60 panel growth inhibition; format: cell-based; details: Homo sapiens; SF-268 cell line
Procedure: as §1

CCRF-CEM = assay: NCI60 panel growth inhibition; format: cell-based; details: Homo sapiens; CCRF-CEM cell line
Procedure: as §1

MDA-MB-468 = assay: NCI60 panel growth inhibition; format: cell-based; details: Homo sapiens; MDA-MB-468 cell line
Procedure: as §1

T-47D = assay: NCI60 panel growth inhibition; format: cell-based; details: Homo sapiens, T47D; T-47D cell line
Procedure: as §1

SK-MEL-5 = assay: NCI60 panel growth inhibition; format: cell-based; details: Homo sapiens; SK-MEL-5 cell line
Procedure: as §1

MDA-MB-435 = assay: NCI60 panel growth inhibition; format: cell-based; details: Homo sapiens; MDA-MB-435 cell line
Procedure: as §1

HL-60(TB) = assay: NCI60 panel growth inhibition; format: cell-based; details: Homo sapiens; HL-60(TB) cell line
Procedure: The human tumor cell lines of the cancer screening panel may be grown in RPMI 1640 medium containing 5% fetal bovine serum and 2 mM L-glutamine. Cells may be inoculated into 96 well microtiter plates in 100 μL at plating densities ranging from 5,000 to 40,000 cells/well depending on the doubling time of individual cell lines. After cell inoculation, the microtiter plates may be incubated at 37° C., 5% CO2, 95% air and 100% relative humidity for 24 hours prior to addition of experimental compounds. After 24 hours, two plates of each cell line may be fixed in situ with TCA, to represent a measurement of the cell population for each cell line at the time of compound addition (Tz). Experimental compounds may be solubilized in dimethyl sulfoxide at 400-fold the desired final maximum test concentration and stored frozen prior to use. […] Bound stain may be subsequently solubilized with 10 mM trizma base, and the absorbance may be read on an automated plate reader at a wavelength of 515 nm. […] Using the seven absorbance measurements [time zero, (Tz), control growth, (C), and test growth in the presence of compound (e.g., dovitinib or a pharmaceutically acceptable salt thereof) at the five concentration levels (Ti)], the percentage growth may be calculated at each of the compound concentrations levels. […] The compound concentration resulting in total growth inhibition (TGI) is calculated from Ti=Tz. […]

[1] = tested on: patients with RCC, GIST, endometrial cancer, HCC or breast cancer; assay: Clinical response rate as a function of DRP cutoff, all five cohorts of Examples 2-6; format: in vivo, human
Excerpt: Gene expression data (Affymetrix) and clinical response data was obtained from 73 patients in the dovitinib arm. The DRP was applied to calculate a score for each patient (mean of genes in Table 2 minus mean of genes in Table 3). The score for each patient was compared to a reference population with the same diagnosis. For the reference population the dovitinib and sorafenib arms were combined (N=148). This allowed the calculation of a percentile score for each patient. Patients were grouped according to RECIST v1.1 response (centrally assessed) and included in FIG. 1.
Gene expression data (Affymetrix) and clinical response data was obtained from 14 patients. The DRP was applied to calculate a score for each patient (mean of genes in Table 2 minus mean of genes in Table 3). The score for each patient was compared to a reference population with the same diagnosis. For the reference population public data sets were downloaded from the GEO database (GSE20708, GSE17743, GSE8167, N=83). This allowed the calculation of a percentile score for each patient. Patients were grouped according to RECIST v1.1 response (locally assessed, no central assessment) and included in FIG. 1.
Gene expression data (Affymetrix) and clinical response data was obtained from 29 patients. The DRP was applied to calculate a score for each patient (mean of genes in Table 2 minus mean of genes in Table 3). The score for each patient was compared to a reference population with the same diagnosis. For the reference population a public data set was downloaded from the GEO database (GSE17025, N=91). This allowed the calculation of a percentile score for each patient. Patients were grouped according to RECIST v1.1 response (central assessment) and included in FIG. 1.
Gene expression data (Affymetrix) and clinical response data was obtained from 6 patients in the dovitinib arm. The DRP was applied to calculate a score for each patient (mean of genes in Table 2 minus mean of genes in Table 3). The score for each patient was compared to a reference population with the same diagnosis. […]

CN1CCN(c2ccc3nc(-c4c(N)c5c(F)cccc5[nH]c4=O)[nH]c3c2)CC1 [dovitinib, 4-amino-5-fluoro-3-[6-(4-methylpiperazin-1-yl)-1H-benzimidazol-2-yl]-1H-quinolin-2-one]
GI50 (NCl-H322M): 759 nM | GI50 (SK-MEL-28): 1480 nM | GI50 (HCT-15): 427 nM | GI50 (MOLT-4): 331 nM | GI50 (SNB-19): 2630 nM | GI50 (UACC-62): 3630 nM | GI50 (SF-295): 6030 nM | GI50 (NCl-H522): 3160 nM | GI50 (CAKI-1): 468 nM | GI50 (NCl-H460): 468 nM | GI50 (MDA-MB-231/ATCC): 2340 nM | GI50 (NCl-H226): 355 nM | GI50 (SW-620): 550 nM | GI50 (SR): 447 nM | GI50 (BT-549): 1050 nM | GI50 (NCl/ADR-RES): 2690 nM | GI50 (UACC-257): 3390 nM | GI50 (OVCAR-4): 575 nM | GI50 (HOP-92): 355 nM | GI50 (U251): 550 nM | GI50 (SK-MEL-2): 891 nM | GI50 (K-562): 550 nM | GI50 (HCT-116): 417 nM | GI50 (OVCAR-8): 1450 nM | GI50 (OVCAR-5): 1780 nM | GI50 (COLO 205): 2240 nM | GI50 (IGROV1): 251 nM | GI50 (M14): 389 nM | GI50 (A549/ATCC): 562 nM | GI50 (UO-31): 219 nM | GI50 (HS 578T): 977 nM | GI50 (786-0): 724 nM | GI50 (LOX IMVI): 871 nM | GI50 (SK-OV-3): 513 nM | GI50 (SF-539): 427 nM | GI50 (HCC-2998): 1320 nM | GI50 (NCl-H23): 2450 nM | GI50 (SNB-75): 977 nM | GI50 (RPMI-8226): 1480 nM | GI50 (MCF7): 1170 nM | GI50 (TK-10): 7760 nM | GI50 (EKVX): 7590 nM | GI50 (OVCAR-3): 6760 nM | GI50 (DU-145): 1150 nM | GI50 (RXF 393): 219 nM | GI50 (A498): 135 nM | GI50 (HT29): 1410 nM | GI50 (PC-3): 1120 nM | GI50 (KM12): 41.7 nM | GI50 (SN12C): 676 nM | GI50 (HOP-62): 1450 nM | GI50 (MALME-3M): 490 nM | GI50 (ACHN): 331 nM | GI50 (SF-268): 2190 nM | GI50 (CCRF-CEM): 589 nM | GI50 (MDA-MB-468): 2570 nM | GI50 (T-47D): 10000 nM | GI50 (SK-MEL-5): 1780 nM | GI50 (MDA-MB-435): 1070 nM | GI50 (HL-60(TB)): 1070 nM | overall response rate (ORR=CR+PR) ([1]; all five cohorts from Examples 2-6, patients at DRP cutoff of 50): 26% | overall response rate (ORR=CR+PR) ([1]; all five cohorts from Examples 2-6, patients at DRP cutoff of 80): 35% | average overall response rate (ORR=CR+PR) ([1]; all five cohorts from Examples 2-6, without the DRP (breast cohort received dovitinib plus fulvestrant)): 16%

Source: patent US10835531B1, “Methods for predicting drug responsiveness in cancer patients” (Oncology Venture ApS, priority 2019, dated 2020)
